Measured values published in patent US20060211606A1, “Peptides” (priority 2005, published 2006).
*1 amine or outer side, *2 acyl side, *3 side chain or, on linkers, in order; H or OH if unused. [ ]: non-standard residue; d: D form. PEG (Jeffamine) = not defined here; Suc = O=C(CCC(=O)[*:2])[*:1]

Columns and labels:
[1] = system: normal craniofacial (masseter) primary cultures; experiment: Desmin positive cell proliferation, normal craniofacial (masseter) primary cultures; format: cell-based, human; details: for desmin positive cells as percentage of total cells: peptide alone, 10 ng/ml, serum-free defined media, mean±s.d.
Text: (§1) Human primary muscle cell cultures were isolated as previously described [Lewis et al., 2000; Sinanan et al., 2004]. Briefly, following informed consent, craniofacial (masseter) muscle biopsies were obtained from healthy adult and CMD patients during elective surgery at the Eastman and Middlesex Hospitals, London, UK. Human lower limb (vastus lateralis) muscle samples were obtained from consenting, adult healthy, FSHD and ALS patients by needle biopsy under local anaesthesia at the Royal Free Hospital, London, UK. Biopsies were pooled from several patients with the same disorder to obtain sufficient cell numbers in the primary cultures. These were washed with antibiotic (penicillin, 100 U/ml; streptomycin, 100 μg/ml; fungizone, 2.5 μg/ml; Invitrogen) supplemented DMEM (high glucose; Invitrogen), scissor-minced and tissue fragments plated into 0.2% gelatin-coated (Sigma-Aldrich) T150 cm^2 culture flasks (Helena Biosciences). Explant cultures were incubated in serum-containing Growth Media (sGM), composed of DMEM, 20% FCS (PAA Laboratories), penicillin (100 U/ml) and streptomycin ([…]) (Invitrogen), and maintained at 37° C. in humidified 95% air with 5% CO2. The first wave of migration of mononuclear cells from the explant was designated the […]-wave and this population was used throughout this study. Migratory human muscle cell were enzymatically harvested using trypsin-EDTA (Invitrogen) and subcultured in sGM until 70-80% confluency. Passage number x (Px), was defined as the xth sequential harvest of subconfluent cells. All experiments were performed using P3-5 cohorts. The expanded cells were then stored under cryogenic conditions until they were used in the experiments described below. At least 6 runs were made for each of the treatments used for each diseased muscle culture as well as for the two types of healthy muscle.
(§2) Assessment of the number of myogenic precursors was performed as described previously (Sinanan et al., 2004). Cells were re-plated on gelatin-coated (0.2%) 13 mm coverslips at an initial density of 4.5×10^3 cells cm^−2. […]
(§3) At the appropriate time-points, cells were fixed with methanol for 10 min (−20° C.), followed by detergent permeabilization with 0.5% Triton-X100 for 10-15 min. […] Cell-associated fluorescence and morphology, were visualized by epi-fluorescence and Leica Modulation Contrast (LMC) microscopy respectively, using an inverted Leica DMIRB microscope equipped with Leica FW4000 image processing software. For the proliferation assay, all blue and green fluorescent positive cells were counted in a field. […]

infarcted murine heart = experiment: Murine myocardial infarction (LAD ligation), pressure/volume loops; format: in vivo, mice; details: murine MI by LAD ligation; systemic administration
Procedure: All panels show pressure (mmHg) on the Y-axis and Relative Volume Units on the X-axis.
Additional experiments were carried out on mice. In these studies the MI was produced by ligating the left anterior descending (LAD) coronary artery of the murine heart. This causes dilation of the left ventricle, the progression of which leads to heart failure. […] Therefore there is considerable potential for treatment of patients immediately following a heart attack.

[2] = system: muscle cells from amyotrophic lateral sclerosis (ALS); experiment: Desmin positive cell proliferation, muscle cells from amyotrophic lateral sclerosis (ALS); format: cell-based, human; details: for desmin positive cells as percentage of total cells: peptide alone, 10 ng/ml, mean±s.d.
Text: as §1, §2, §3

[3] = system: dystrophic muscles of the mdx mouse; experiment: Intramuscular injection into dystrophic muscle of mdx mice, tetanic force; format: in vivo; details: i.m. two per week for three weeks
Procedure: Greater increases, of up to around 35% (FIGS. 3A, 3B), were recorded for intramuscular injections (two per week for three weeks) in the dystrophic muscles of the mdx mouse, which has the same type of mutation as that in human Duchenne muscular dystrophy.

CA1 hippocampal neurones = experiment: Gerbil model of brain ischemia, intact CA1 hippocampal neurones; format: in vivo, Mongolian gerbils; details: 25 μg injection, 7 days after the insult
Procedure: Other experiments were carried out using a Gerbil model of brain ischemia.
In the gerbil brain, bilateral ligation of the common carotid arteries invariably produces specific hippocampal lesions: in the CA1 region, pyramidal neurones start to die 3-4 days after ischemia.
Male Mongolian gerbils weighing 50-60 g were used. The ischemic insult was performed by 5 min. ligation of the common carotid arteries under halotane in N2O:O2 (70:30) anaesthesia in strictly controlled normothermic conditions as previously described (Domańiska-Janik et al., 2004). The cerebral blood flow was continuously monitored by laser Doppler flowmetry (Muro, Inc.). […] Sham operated animals were injected with the same dose of the peptide.
The animals were allowed a recovery period of one week, then were perfused with ice-cold 4% paraformaldehyde in PBS under pentobarbital anaesthesia. The histological evaluation was performed on paraffin-embedded and fixed, 10 mm-thick sections stained by hematoxylline/eosine. The extent of cell damage in the CA1 hippocampal region was quantified, under a Zeiss Axioscop 2, as the mean number of the persisted, intact neurons in the coronal sections. At least three defined 300 μm fields of the CA1 region were captured using a MC 10095 camera (Carl Zeiss Jena GmbH) and counted in a computer-assisted image analysis system (KS 300, Carl Zeiss Jena GmbH).

## stabilised peptide: SEQ ID NO: 15 with D-Arginine at positions 14 and 15, N-terminus attached to PEG (Jeffamine) via succinic acid bridge, amidated at C-terminus ({PEG (Jeffamine)-Suc}-YQPPSTNKNTKSQ[dR][dR]KGSTFEEHK-NH2; reading uncertain)
[1]; normal craniofacial
  desmin positive cells as percentage of total cells: 68.8±3.9%
[1]; normal craniofacial, stabilised peptide in combination with IGF-I (10 ng/ml each)
  desmin positive cells as percentage of total cells, IGF-I added: 59.5±4.2%
[1]; normal muscle, stabilised peptide plus Ab-1
  desmin positive cells as percentage of total cells, plus anti-IGF-I receptor antibody Ab-1: 71.1±6.2%
Infarcted murine heart
  strength and function of the heart by pressure/volume loops: markedly improved the strength and function of the heart
[2]
  desmin positive cells as percentage of total cells: 7.2±0.8%
[2]; stabilised peptide in combination with IGF-I
  desmin positive cells as percentage of total cells, IGF-I added: 5.3±1.0%
[2]; stabilised peptide plus Ab-1
  desmin positive cells as percentage of total cells, plus anti-IGF-I receptor antibody Ab-1: 6.5±0.8%
[3]
  percentage change in tetanic force (increase in muscle strength): ≤ 35%

## IGF-I: IGF-I receptor binding domain encoded by Exons 3 and 4, common to all splice variants, approximately 70 amino acids [reference compound]
[1]; normal craniofacial
  desmin positive cells as percentage of total cells: 58.4±4.2%
[2]
  desmin positive cells as percentage of total cells: 4.7±1.4%
[3]
  percentage change in tetanic force (increase in muscle strength): around 5%
CA1 hippocampal neurones
  CA1 neurones as % of the control neuronal cell number (side not stated): 15.8%
  number of CA1 neurones left (side not stated): 19.2±7.3 neurones
